From patent publication US11535594B2, “Microbiocidal picolinamide derivatives” (Syngenta Participations AG, priority 2017, dated 2022)

Columns and labels:
[1] = system: Mycosphaerella Graminicola (Septoria tritici); assay: Mycosphaerella graminicola (Septoria tritici) / liquid culture (Septoria blotch); format: cell-based; details: Zymoseptoria tritici, PDB potato dextrose broth, 24° C., 4 to 5 days after application, compared to untreated checks, read-out: disease control (inhibition of growth, photometric)
Procedure: (§1) Mycosphaerella Graminicola (Septoria tritici)/Liquid Culture (Septoria Blotch) Conidia of the fungus from cryogenic storage are directly mixed into nutrient broth (PDB potato dextrose broth). After placing a (DMSO) solution of test compound into a microtiter plate (96-well format), the nutrient broth containing the fungal spores is added. The test plates are incubated at 24° C. and the inhibition of growth is determined photometrically 4 to 5 days after application.

[2] = system: Monographella nivalis (Microdochium nivale); assay: Monographella nivalis (Microdochium nivale) / liquid culture (foot rot cereals); format: cell-based; details: PDB potato dextrose broth, 24° C., 4-5 days after application, compared to untreated checks, read-out: disease control (inhibition of growth, photometric)
Procedure: as §1, with “Monographella nivalis (Microdochium nivale)/Liquid” for “Mycosphaerella Graminicola (Septoria tritici)/Liquid”, “(Foot Rot Cereals)” for “(Septoria Blotch)”, “4-5” for “4 to 5”

[3] = system: Mycosphaerella arachidis (Cercospora arachidicola); assay: Mycosphaerella arachidis (Cercospora arachidicola) / liquid culture (early leaf spot); format: cell-based; details: PDB potato dextrose broth, 24° C., 4-5 days after application, compared to untreated checks, read-out: disease control (inhibition of growth, photometric)
Procedure: as §1, with “arachidis (Cercospora arachidicola)/Liquid” for “Graminicola (Septoria tritici)/Liquid”, “(Early Leaf Spot)” for “(Septoria Blotch)”, “4-5” for “4 to 5”

[4] = system: Phaeosphaeria nodorum (Septoria nodorum); assay: Phaeosphaeria nodorum (Septoria nodorum) / wheat / leaf disc preventative (glume blotch); format: in vivo; details: Parastagonospora nodorum, foliar, 120 h, wheat leaf segments cv. Kanzler, inoculated 2 days after application, assessed 5-7 days after application, compared to untreated, read-out: disease control
Procedure: Phaeosphaeria nodorum (Septoria nodorum)/Wheat/Leaf Disc Preventative (Glume Blotch) Wheat leaf segments cv. Kanzler are placed on agar in a multiwell plate (24-well format) and sprayed with the formulated test compound diluted in water. The leaf disks are inoculated with a spore suspension of the fungus 2 days after application. The inoculated test leaf disks are incubated at 20° C. and 75% rh under a light regime of 12 h light/12 h darkness in a climate cabinet and the activity of a compound is assessed as percent disease control compared to untreated when an appropriate level of disease damage appears in untreated check leaf disks (5-7 days after application).

[5] = system: Magnaporthe grisea (Pyricularia oryzae); assay: whole plant or invertebrate; format: in vivo; details: foliar, read-out: disease control
[6] = system: Glomerella Lagenarium (Colletotrichum lagenarium); assay: Glomerella lagenarium (Colletotrichum lagenarium) / liquid culture (anthracnose); format: cell-based; details: Colletotrichum orbiculare, PDB potato dextrose broth, 24° C., 3 to 4 days after application, compared to untreated checks, read-out: disease control (inhibition of growth, photometric)
Procedure: as §1, with “Glomerella Lagenarium (Colletotrichum lagenarium)/Liquid” for “Mycosphaerella Graminicola (Septoria tritici)/Liquid”, “(Anthracnose)” for “(Septoria Blotch)”, “measured” for “determined”, “photometrically 3 to” for “photometrically”, “4” for “4 to 5”

[7] = system: Botryotinia fuckeliana (Botrytis cinerea); assay: Botryotinia fuckeliana (Botrytis cinerea) / liquid culture (gray mould); format: cell-based; details: Vogels broth, 24° C., 3-4 days after application, compared to untreated checks, read-out: disease control (inhibition of growth, photometric)
Procedure: as §1, with “Botryotinia fuckeliana (Botrytis cinerea)/Liquid” for “Mycosphaerella Graminicola (Septoria tritici)/Liquid”, “(Gray Mould)” for “(Septoria Blotch)”, “(Vogels” for “(PDB potato dextrose”, “3-4” for “4 to 5”

[8] = system: Puccinia Recondite f. Sp. Tritici; assay: Puccinia recondita f. sp. tritici / wheat / leaf disc preventative (brown rust); format: in vivo; details: foliar, wheat leaf segments cv. Kanzler, inoculated 1 day after application, assessed 7-9 days after application, compared to untreated, read-out: disease control
Procedure: Puccinia Recondite f. Sp. Tritici/Wheat/Leaf Disc Preventative (Brown Rust) Wheat leaf segments cv. Kanzler are placed on agar in multiwell plates (24-well format) and sprayed with the formulated test compound diluted in water. The leaf disks are inoculated with a spore suspension of the fungus 1 day after application. The inoculated leaf segments are incubated at 19° C. and 75% rh under a light regime of 12 h light/12 h darkness in a climate cabinet and the activity of a compound is assessed as percent disease control compared to untreated when an appropriate level of disease damage appears in untreated check leaf segments (7-9 days after application).

[9] = system: Blumeria graminis f. Sp. Tritici (Erysiphe Graminis f. Sp. Tritici); assay: Blumeria graminis f. sp. tritici / wheat / leaf disc preventative (powdery mildew on wheat); format: in vivo; details: 200 ppm; wheat leaf segments cv. Kanzler, inoculated 1 day after application, assessed 6-8 days after application, compared to untreated
Procedure: Blumeria graminis f. Sp. Tritici (Erysiphe Graminis f. Sp. Tritici)/Wheat/Leaf Disc Preventative (Powdery Mildew on Wheat)
Wheat leaf segments cv. Kanzler are placed on agar in a multiwell plate (24-well format) and sprayed with the test compound formulated with DMSO and Tween20 and diluted in water. The leaf disks are inoculated by shaking powdery mildew infected plants above the test plates 1 day after application. The inoculated leaf disks are incubated at 20° C. and 60% rh under a light regime of 24 h darkness followed by 12 h light/12 h darkness in a climate chamber and the activity of a compound is assessed as percent disease control compared to untreated when an appropriate level of disease damage appears on untreated check leaf segments (6-8 days after application).

Alternaria solani = Alternaria solani / tomato / leaf disc (early blight); format: in vivo; details: 200 ppm; tomato leaf disks cv. Baby, inoculated 2 days after application, assessed 5-7 days after application, compared to untreated
Procedure: Alternaria solani/Tomato/Leaf Disc (Early Blight) Tomato leaf disks cv. Baby are placed on agar in multiwell plates (24-well format) and sprayed with the formulated test compound diluted in water. The leaf disks are inoculated with a spore suspension of the fungus 2 days after application. The inoculated leaf disks are incubated at 23° C./21° C.

SMILES | inhibition at 200 ppm [1] [%] | inhibition at 200 ppm [2] [%] | inhibition at 200 ppm [3] [%] | pest or weed control at 200 ppm [4] [%] | pest or weed control at 200 ppm [5] [%] | inhibition at 200 ppm [6] [%] | inhibition at 200 ppm [7] [%] | pest or weed control at 200 ppm [8] [%] | disease control [9] | control of Alternaria solani (Alternaria solani)
COc1ccnc(C(=O)N[C@@H](C)C(=O)ON(C)C(C)(c2ccc(Cl)cc2)c2ccc(Cl)cc2)c1OC(C)=O [I.u.14, [1,1-bis(4-chlorophenyl)ethyl-methyl-amino] (2S)-2-[(3-acetoxy-4-methoxy-pyridine-2-carbonyl)amino]propanoate] | ≥ 80 | ≥ 80 | ≥ 80 | ≥ 80 | ≥ 80 | ≥ 80 | ≥ 80 | ≥ 80 | – | –
COc1ccnc(C(=O)N[C@@H](C)C(=O)ON(C)C(c2ccccc2)c2ccccc2)c1O [I.m.01, [benzhydryl(methyl)amino] (2S)-2-[(3-hydroxy-4-methoxy-pyridine-2-carbonyl)amino]propanoate] | ≥ 80 | ≥ 80 | ≥ 80 | ≥ 80 | ≥ 80 | ≥ 80 | ≥ 80 | ≥ 80 | – | –
COc1ccnc(C(=O)N[C@@H](C)C(=O)ON(C)C(c2ccccc2)c2ccccc2)c1OC(C)=O [I.m.13, [benzhydryl(methyl)amino] (2S)-2-[(3-acetoxy-4-methoxy-pyridine-2-carbonyl)amino]propanoate] | ≥ 80 | – | ≥ 80 | ≥ 80 | ≥ 80 | – | – | ≥ 80 | at least 80% | –
COc1ccnc(C(=O)N[C@@H](C)C(=O)ON(C)C(C)(c2ccccc2)c2ccc(Cl)cc2)c1O (stereo partly drawn) [I.o.02, [[1-(4-chlorophenyl)-1-phenyl-ethyl]-methyl-amino] (2S)-2-[(3-hydroxy-4-methoxy-pyridine-2-carbonyl)amino]propanoate] | ≥ 80 | – | ≥ 80 | ≥ 80 | ≥ 80 | – | – | ≥ 80 | – | at least 80%
